US20100323975A1, “THERAPEUTIC AGENT FOR CEREBRAL ISCHEMIC INJURY” (OTSUKA PHARMACEUTICAL FACTORY, INC., priority 2007, published 2010)
Peptide text beside a SMILES is read from it.

How the values were obtained:
Wistar male rats = assay: Identification of side effects after intravenous administration (Test Example 2); details: rat, in vivo
Description: (§1) 7- to 9-week-old Wistar male rats were divided into the following 8 administration groups. The number of rats in each group was set at 4. […]
L-histidine hydrochloride was dissolved in water for injection purpose, and the obtained solution was then adjusted to pH 6.0 with a sodium hydroxide aqueous solution. The obtained injection solution (L-histidine concentration: 10% (W/V)) was administered into the caudal vein of each rat at a rate of 60 mL/kg/hr for 10 minutes.
(§2) L-histidine was added to water for injection purpose, and acetic acid was further added thereto, so as to dissolve L-histidine in the solution. The obtained solution was adjusted to pH 6.0 with a sodium hydroxide aqueous solution. The obtained injection solution (L-histidine concentration: 10% (W/V)) was administered into the caudal vein of each rat at a rate of 60 mL/kg/hr for 10 minutes.
as §2, with “citric” for “acetic”
β-alanyl-L-histidine was added to water for injection purpose, and the obtained solution was then adjusted to pH 7 with hydrochloric acid. The obtained injection solution (L-histidine concentration: 10% (W/V)) was administered into the caudal vein of each rat at a rate of 60 mL/kg/hr for 10 minutes. […]
(§3) After administration of the agent, blood was collected from each rat at regular time intervals, and the concentration of L-histidine (monomer) in blood was then measured using a high speed amino acid analyzer L-8800A (manufactured by Hitachi High-Technologies Corporation). […] In addition, the body temperature, blood pressure, and cardiac rate of each test animal were measured during the period from before administration of the agent until after the administration of the agent, and at the same time, the appearance of each test animal was observed, so as to examine the presence or absence of side effects caused by administration of the agent. The L-histidine concentration in blood was measured 15 minutes after the administration of the agent, and the presence or absence of side effects caused by such administration of the agent was examined.

[1] = Solubility in water at 25° C.; format: physicochemical
[2] = L-histidine concentration in blood after intravenous administration (Test Example 2); details: male, Wistar, rat, in vivo, 15 min
Description: as §1
The therapeutic agent for cerebral ischemic injury obtained in Production Example 2 was diluted by a factor of 2, and the thus diluted solution was administered into the caudal vein of each rat at a rate of 60 mL/kg/hr for 10 minutes. […]
as §2
as §2, with “citric” for “acetic”, “minutes. […]” for “minutes.”
as §3

[3] = test system: model of middle cerebral artery occlusion and subsequent reperfusion (cerebral ischemic injury); assay: Infarction rate and cerebral edema rate in model of middle cerebral artery occlusion and subsequent reperfusion (Test Example 5); format: in vivo, Wistar male rats; details: Production Example 4 injection (0.64 mol/L), caudal vein 60 mL/kg/hr for 10 minutes, immediately after and 6 hours after reperfusion; 120 min occlusion; 24 hours after reperfusion; FIG. 2
Source text: Approximately 7-week-old Wistar male rats were used. The method of Koizumi et al. (Nou-socchu (Cerebral Apoplexy), Vol. 8, pp. 1-8, 1986) was applied to the rats under halothane anesthesia, so as to produce models of middle cerebral artery occlusion and subsequent reperfusion. Specifically, each rat was fixed under natural aspiration conditions under anesthesia with gas (initial anesthesia: performed in room air containing 3% halothane; continuous anesthesia: performed in room air containing 1% halothane), and the neck of the rat was then subjected to median incision. […]
On the day after the administration of the agent (24 hours after cerebral ischemia-reperfusion), a test animal was anesthetized with ether, and the brain was then excised. […] A slice of brain section was placed, with a surface to be measured down, into each well of a 12-well plate, which had been filled with a 2% TTC solution prepared by dissolving 2,3,5-triphenyltetrazolium chloride (TTC) in a phosphate buffered saline. […] Thus, the area of an infarct on the measurement surface of each brain section (the site in which brain tissue was considered to be necrosed) was measured, and the obtained value was then multiplied by the thickness of the brain section, so as to obtain the volume of an infarct in each brain section. […]

NCC(=O)N[C@@H](Cc1c[nH]cn1)C(=O)O [glycyl-L-histidine] (H-Gly-His-OH)
Side effects (Wistar male rats): None | solubility [1]: ≥ 3500 mM | L-histidine concentration in blood (mean value) [2]: 6.2 mM | Cerebral edema rate compared with control group [3]: remarkably suppressed | Infarction rate compared with control group [3]: remarkably suppressed
